Assay [1] deals with T1, human Kv1.6 (Homo sapiens, UniProt P17658).
T1 construct: expressed in transfected cells; host or cells: CHO
Put plainly: cell-based. As to conditions: ratio of patch clamp IC50 values. (In general: The patch-clamp technique gives a direct electrical read-out from membranes.)

The target in assay [2] is T2, human Kv1.1 (Homo sapiens, UniProt Q09470).
T2 construct: expressed in transfected cells; host or cells: CHO
Put plainly: cell-based. Particulars: ratio of patch clamp IC50 values.

In assay [3] the target is Rat whole blood (Rattus norvegicus, UniProt P15384). It is filed as cell-based. As to conditions: IL-17A release, thapsigargin, 24 Hr, at least 2 replicates.
Assay [4] concerns the target T3, human Kv1.2 (Homo sapiens, UniProt P16389).
T3 construct: expressed in transfected cells; host or cells: CHO
Put plainly: cell-based. Particulars: ratio of patch clamp IC50 values.

Each structure is given as a SMILES string. Where a SMILES comes first, the peptide text is derived from it. Bridges are numbered along the chain shown (N, C = ends). [ ]: non-standard residue; d: D form. Phe(4-NH2) = Nc1ccc(C[C@H](N)C(=O)O)cc1; Nle = CCCC[C@H](N)C(=O)O Where only a bound is given, the exact number is not on record here.

T1 sequence (P17658 whole entry): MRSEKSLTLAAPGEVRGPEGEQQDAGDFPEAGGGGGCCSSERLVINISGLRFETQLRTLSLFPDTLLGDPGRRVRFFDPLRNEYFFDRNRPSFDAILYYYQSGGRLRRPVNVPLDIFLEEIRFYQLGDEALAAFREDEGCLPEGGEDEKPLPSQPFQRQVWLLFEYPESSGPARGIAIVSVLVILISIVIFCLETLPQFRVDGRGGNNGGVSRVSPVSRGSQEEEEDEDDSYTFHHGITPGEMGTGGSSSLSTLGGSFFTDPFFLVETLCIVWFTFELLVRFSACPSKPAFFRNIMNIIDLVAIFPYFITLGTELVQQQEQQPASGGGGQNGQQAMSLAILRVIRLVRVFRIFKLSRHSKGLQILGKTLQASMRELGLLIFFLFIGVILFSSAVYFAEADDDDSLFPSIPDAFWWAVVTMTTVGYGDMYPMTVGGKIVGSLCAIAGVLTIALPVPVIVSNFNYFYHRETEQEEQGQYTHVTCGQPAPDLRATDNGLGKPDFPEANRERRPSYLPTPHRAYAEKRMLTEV
T3 sequence (P16389 whole entry): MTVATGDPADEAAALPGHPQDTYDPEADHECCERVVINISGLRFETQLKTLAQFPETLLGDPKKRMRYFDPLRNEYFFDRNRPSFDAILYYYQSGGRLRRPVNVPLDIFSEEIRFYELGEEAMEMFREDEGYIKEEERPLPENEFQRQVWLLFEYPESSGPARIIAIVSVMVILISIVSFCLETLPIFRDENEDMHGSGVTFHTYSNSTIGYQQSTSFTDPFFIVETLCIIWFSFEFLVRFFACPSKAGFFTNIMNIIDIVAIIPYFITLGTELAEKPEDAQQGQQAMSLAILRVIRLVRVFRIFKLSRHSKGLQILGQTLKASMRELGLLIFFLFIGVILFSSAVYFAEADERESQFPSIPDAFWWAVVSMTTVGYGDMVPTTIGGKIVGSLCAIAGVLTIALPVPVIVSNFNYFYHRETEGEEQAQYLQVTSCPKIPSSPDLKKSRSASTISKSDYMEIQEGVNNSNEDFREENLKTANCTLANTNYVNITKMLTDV
T2 sequence (Q09470 whole entry): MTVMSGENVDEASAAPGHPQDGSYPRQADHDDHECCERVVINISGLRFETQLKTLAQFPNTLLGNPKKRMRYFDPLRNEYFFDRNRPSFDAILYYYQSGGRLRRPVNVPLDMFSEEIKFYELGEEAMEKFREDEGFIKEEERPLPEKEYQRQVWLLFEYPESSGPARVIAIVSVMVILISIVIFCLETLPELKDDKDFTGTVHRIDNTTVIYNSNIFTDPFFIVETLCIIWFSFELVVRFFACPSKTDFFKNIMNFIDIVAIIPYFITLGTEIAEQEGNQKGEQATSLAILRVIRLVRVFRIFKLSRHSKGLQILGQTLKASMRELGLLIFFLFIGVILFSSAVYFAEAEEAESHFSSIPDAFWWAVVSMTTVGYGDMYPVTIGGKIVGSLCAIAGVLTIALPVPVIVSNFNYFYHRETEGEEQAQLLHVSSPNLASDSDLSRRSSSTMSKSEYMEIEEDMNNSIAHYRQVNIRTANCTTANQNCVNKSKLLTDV
Chain of Rat whole blood (P15384 whole entry): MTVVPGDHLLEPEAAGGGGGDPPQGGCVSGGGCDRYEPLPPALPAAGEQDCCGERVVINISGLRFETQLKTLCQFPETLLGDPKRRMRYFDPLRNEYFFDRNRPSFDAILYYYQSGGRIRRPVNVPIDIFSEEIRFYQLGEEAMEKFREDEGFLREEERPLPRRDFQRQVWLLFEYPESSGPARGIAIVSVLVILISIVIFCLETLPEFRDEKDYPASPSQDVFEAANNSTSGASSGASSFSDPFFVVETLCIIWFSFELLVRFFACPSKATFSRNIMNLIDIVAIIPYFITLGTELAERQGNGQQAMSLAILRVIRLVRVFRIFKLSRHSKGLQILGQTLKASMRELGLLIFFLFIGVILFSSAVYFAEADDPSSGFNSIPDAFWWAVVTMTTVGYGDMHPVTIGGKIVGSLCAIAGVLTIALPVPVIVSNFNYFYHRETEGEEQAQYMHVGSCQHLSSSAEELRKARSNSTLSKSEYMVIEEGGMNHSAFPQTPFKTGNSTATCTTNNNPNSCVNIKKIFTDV

In the case of `CCCC[C@@H]1NC(=O)[C@@H]2CSSC[C@H](NC(=O)[C@H](CCCNC(=N)N)NC(=O)[C@H](CCCC)NC(=O)[C@H](CC(=O)O)NC(=O)[C@H](CCCC)NC(=O)[C@@H](N)CC(N)=O)C(=O)N[C@@H](CO)C(=O)N[C@@H](C)C(=O)N[C@@H](CO)C(=O)N[C@@H](C(C)C)C(=O)N[C@@H](CCC(=O)O)C(=O)N[C@H]3CSSC[C@H](NC(=O)[C@H](CCCCN)NC(=O)[C@H](CCCCN)NC(=O)[C@H](CC(N)=O)NC1=O)C(=O)N[C@@H](CCCCN)C(=O)N[C@H](C(=O)N[C@@H](Cc1ccc(O)cc1)C(=O)N1CCC[C@H]1C(=O)N[C@@H](CCCNC(=N)N)C(N)=O)CSSC[C@H](NC(=O)[C@H](CCCCN)NC(=O)[C@H](CCC(N)=O)NC(=O)[C@H](CCCCN)NC3=O)C(=O)N[C@@H](CCCCN)C(=O)N[C@@H](C)C(=O)N[C@@H]([C@@H](C)CC)C(=O)NCC(=O)N[C@@H](CO)C(=O)N[C@@H]([C@@H](C)CC)C(=O)N[C@@H](Cc1ccccc1)C(=O)NCC(=O)N[C@@H](CCCCN)C(=O)N2` [compound 53] (H-N[Nle]D[Nle]RCSASVECKQKCKAIGSIFGKC[Nle]NKKCKCYPR-NH2; disulfide 6-26, 12-31, 16-33), the “Selectivity ratio Kv1.6/Kv1.3” value in assay [1] is listed as 707. In addition, in assay [2], the “Selectivity ratio Kv1.1/Kv1.3” value is recorded as greater than 2200. In addition, the IC50 (usually the midpoint of a concentration-inhibition curve) in assay [3] turned out to be 1 nM. The “Selectivity ratio Kv1.2/Kv1.3” value in assay [4] is given as 123.

Regarding `CCCC[C@@H]1NC(=O)[C@@H]2CSSC[C@H](NC(=O)[C@H](CCCNC(=N)N)NC(=O)[C@H](CCCC)NC(=O)[C@H](CC(=O)O)NC(=O)[C@H](CCCC)NC(=O)[C@@H](N)CC(N)=O)C(=O)N[C@@H](CO)C(=O)N[C@@H](C)C(=O)N[C@@H](CO)C(=O)N[C@@H](C(C)C)C(=O)N[C@@H](CCC(=O)O)C(=O)N[C@H]3CSSC[C@H](NC(=O)[C@H](CCCCN)NC(=O)[C@H](CCCCN)NC(=O)[C@H](CC(N)=O)NC1=O)C(=O)N[C@@H](CCCCN)C(=O)N[C@H](C(=O)N[C@@H](Cc1ccc(O)cc1)C(=O)N1CCC[C@H]1C(=O)N[C@@H](CCCNC(=N)N)C(N)=O)CSSC[C@H](NC(=O)[C@H](CCCCN)NC(=O)[C@H](CCC(N)=O)NC(=O)[C@H](CCCCN)NC3=O)C(=O)N[C@@H](CC(C)C)C(=O)N[C@@H](CCCCN)C(=O)N[C@@H](C)C(=O)N[C@@H]([C@@H](C)CC)C(=O)NCC(=O)N[C@@H](CO)C(=O)N1CCC[C@H]1C(=O)N[C@@H](Cc1ccccc1)C(=O)NCC(=O)N[C@@H](CCCCN)C(=O)N2` [compound 62] (H-N[Nle]D[Nle]RCSASVECKQKCLKAIGSPFGKC[Nle]NKKCKCYPR-NH2; disulfide 6-27, 12-32, 16-34), the “Selectivity ratio Kv1.6/Kv1.3” value in assay [1] stood at 9102. For the same compound, in assay [2], the “Selectivity ratio Kv1.1/Kv1.3” value was greater than 11600. This compound also returned an IC50 in assay [3] of 0.44 nM. For the same compound, the “Selectivity ratio Kv1.2/Kv1.3” value in assay [4] is 1740.

With `CCCC[C@@H]1NC(=O)[C@@H]2CSSC[C@H](NC(=O)[C@H](CCCNC(=N)N)NC(=O)[C@H](CCCC)NC(=O)[C@H](CC(=O)O)NC(=O)[C@H](CCCC)NC(=O)[C@@H](N)CC(N)=O)C(=O)N[C@@H](CO)C(=O)N[C@@H](C)C(=O)N[C@@H](CO)C(=O)N[C@@H](CCCCN)C(=O)N[C@@H](CCC(=O)O)C(=O)N[C@H]3CSSC[C@H](NC(=O)[C@H](CCCCN)NC(=O)[C@H](CCCCN)NC(=O)[C@H](CC(N)=O)NC1=O)C(=O)N[C@@H](CCCCN)C(=O)N[C@H](C(=O)N[C@@H](Cc1ccc(O)cc1)C(=O)N1CCC[C@H]1C(=O)N[C@@H](CCCNC(=N)N)C(N)=O)CSSC[C@H](NC(=O)[C@H](CCCCN)NC(=O)[C@H](CCC(N)=O)NC(=O)[C@H](CCCCN)NC3=O)C(=O)N[C@@H](CC(C)C)C(=O)N[C@@H](CCCCN)C(=O)N[C@@H](C)C(=O)N[C@@H]([C@@H](C)CC)C(=O)NCC(=O)N[C@@H](CO)C(=O)N[C@@H]([C@@H](C)CC)C(=O)N[C@@H](Cc1ccccc1)C(=O)NCC(=O)N[C@@H](CCCCN)C(=O)N2` [compound 63] (H-N[Nle]D[Nle]RCSASKECKQKCLKAIGSIFGKC[Nle]NKKCKCYPR-NH2; disulfide 6-27, 12-32, 16-34), in assay [1], the “Selectivity ratio Kv1.6/Kv1.3” value was determined as 3929. For the same compound, the “Selectivity ratio Kv1.1/Kv1.3” value in assay [2] is greater than 9600. In assay [3], the IC50 was 0.68 nM. Moreover, the “Selectivity ratio Kv1.2/Kv1.3” value in assay [4] was found to be 587.

Regarding `CCCC[C@H](NC(=O)[C@H](CC(=O)O)NC(=O)[C@H](CCCC)NC(=O)[C@@H](N)CO)C(=O)N[C@@H](CCCNC(=N)N)C(=O)N[C@H]1CSSC[C@@H]2NC(=O)[C@H](CCCCN)NC(=O)CNC(=O)[C@H](Cc3ccccc3)NC(=O)[C@H]([C@@H](C)CC)NC(=O)[C@H](CO)NC(=O)CNC(=O)[C@H]([C@@H](C)CC)NC(=O)[C@H](C)NC(=O)[C@H](CCCCN)NC(=O)[C@H](CC(C)C)NC(=O)[C@@H]3CSSC[C@@H](C(=O)N[C@@H](Cc4ccc(N)cc4)C(=O)N4CCC[C@H]4C(=O)N[C@@H](CCCNC(=N)N)C(N)=O)NC(=O)[C@H](CCCCN)NC(=O)[C@H](CSSC[C@H](NC(=O)[C@H](CCC(=O)O)NC(=O)[C@H](C(C)C)NC(=O)[C@H](CO)NC(=O)[C@H](C)NC(=O)[C@H](CO)NC1=O)C(=O)N[C@@H](CCCCN)C(=O)N[C@@H](CCC(N)=O)C(=O)N[C@@H](CCCCN)C(=O)N3)NC(=O)[C@H](CCCCN)NC(=O)[C@H](CCCCN)NC(=O)[C@H](CC(N)=O)NC(=O)[C@H](CCSC)NC2=O` [compound 70] (H-S[Nle]D[Nle]RCSASVECKQKCLKAIGSIFGKCMNKKCKC[Phe(4-NH2)]PR-NH2; disulfide 6-27, 12-32, 16-34), the “Selectivity ratio Kv1.6/Kv1.3” value in assay [1] is on record as greater than 12200. The “Selectivity ratio Kv1.1/Kv1.3” value in assay [2] is recorded as greater than 12200. Moreover, the IC50 in assay [3] is 0.79 nM. In addition, the “Selectivity ratio Kv1.2/Kv1.3” value in assay [4] is 1720.

Take `CCCC[C@H](NC(=O)[C@H](CC(=O)O)NC(=O)[C@H](CCCC)NC(=O)[C@@H](N)CO)C(=O)N[C@@H](CCCNC(=N)N)C(=O)N[C@H]1CSSC[C@@H]2NC(=O)[C@H](CCCCN)NC(=O)CNC(=O)[C@H](Cc3ccccc3)NC(=O)[C@H]([C@@H](C)CC)NC(=O)[C@H](CO)NC(=O)CNC(=O)[C@H]([C@@H](C)CC)NC(=O)[C@H](C)NC(=O)[C@H](CCCCN)NC(=O)[C@H](CC(C)C)NC(=O)[C@@H]3CSSC[C@@H](C(=O)N[C@@H](Cc4ccc(O)cc4)C(=O)N4CCC[C@H]4C(=O)N[C@@H](CCCNC(=N)N)C(N)=O)NC(=O)[C@H](CCCCN)NC(=O)[C@H](CSSC[C@H](NC(=O)[C@H](CCC(=O)O)NC(=O)[C@H](C(C)C)NC(=O)[C@H](CO)NC(=O)[C@H](C)NC(=O)[C@H](CO)NC1=O)C(=O)NCC(=O)N[C@@H](CCC(N)=O)C(=O)N[C@@H](CCCCN)C(=O)N3)NC(=O)[C@H](CCCCN)NC(=O)[C@H](CCCCN)NC(=O)[C@H](CC(N)=O)NC(=O)[C@H](CCSC)NC2=O` [compound 71] (H-S[Nle]D[Nle]RCSASVECGQKCLKAIGSIFGKCMNKKCKCYPR-NH2; disulfide 6-27, 12-32, 16-34): the “Selectivity ratio Kv1.6/Kv1.3” value in assay [1] is greater than 27700. Moreover, the “Selectivity ratio Kv1.1/Kv1.3” value in assay [2] is greater than 27700. Besides, in assay [3], the IC50 is 0.3 nM. Further, in assay [4], the “Selectivity ratio Kv1.2/Kv1.3” value is 3438.

For the compound `CCCC[C@H](NC(=O)[C@@H](N)CO)C(=O)N[C@@H](CC(=O)O)C(=O)N[C@@H](CCC(=O)O)C(=O)N[C@@H](CCCNC(=N)N)C(=O)N[C@H]1CSSC[C@@H]2NC(=O)[C@H](CCCCN)NC(=O)CNC(=O)[C@H](Cc3ccccc3)NC(=O)[C@H]([C@@H](C)CC)NC(=O)[C@H](CO)NC(=O)CNC(=O)[C@H]([C@@H](C)CC)NC(=O)[C@H](C)NC(=O)[C@H](CCCCN)NC(=O)[C@H](CC(C)C)NC(=O)[C@@H]3CSSC[C@@H](C(=O)N[C@@H](Cc4ccc(O)cc4)C(=O)N4CCC[C@H]4C(=O)N[C@@H](CCCNC(=N)N)C(N)=O)NC(=O)[C@H](CCCCN)NC(=O)[C@H](CSSC[C@H](NC(=O)[C@H](CCC(=O)O)NC(=O)[C@H](C(C)C)NC(=O)[C@H](CO)NC(=O)[C@H](C)NC(=O)[C@H](CO)NC1=O)C(=O)N[C@@H](CCCCN)C(=O)N[C@@H](CCC(N)=O)C(=O)N[C@@H](CCCCN)C(=O)N3)NC(=O)[C@H](CCCCN)NC(=O)[C@H](CCCCN)NC(=O)[C@H](CC(N)=O)NC(=O)[C@H](CCSC)NC2=O` [compound 76] (H-S[Nle]DERCSASVECKQKCLKAIGSIFGKCMNKKCKCYPR-NH2; disulfide 6-27, 12-32, 16-34), the “Selectivity ratio Kv1.6/Kv1.3” value in assay [1] was greater than 10600. The “Selectivity ratio Kv1.1/Kv1.3” value in assay [2] is given as greater than 10600. For the same compound, the IC50 in assay [3] came to 0.55 nM. Moreover, the “Selectivity ratio Kv1.2/Kv1.3” value in assay [4] stood at 430.

`CCCC[C@@H]1NC(=O)[C@@H]2CSSC[C@H](NC(=O)[C@H](CCCNC(=N)N)NC(=O)[C@H](CCCC)NC(=O)[C@H](CC(=O)O)NC(=O)[C@@H](N)CCCC)C(=O)N[C@@H](CO)C(=O)N[C@@H](C)C(=O)N[C@@H](CO)C(=O)N[C@@H](C(C)C)C(=O)N[C@@H](CCC(=O)O)C(=O)N[C@H]3CSSC[C@H](NC(=O)[C@H](CCCCN)NC(=O)[C@H](CCCCN)NC(=O)[C@H](CC(N)=O)NC1=O)C(=O)N[C@@H](CCCCN)C(=O)N[C@H](C(=O)N[C@@H](Cc1ccc(O)cc1)C(=O)N1CCC[C@H]1C(=O)N[C@@H](CCCNC(=N)N)C(=O)O)CSSC[C@H](NC(=O)[C@H](CCCCN)NC(=O)[C@H](CCC(N)=O)NC(=O)[C@H](CCCCN)NC3=O)C(=O)N[C@@H](CC(C)C)C(=O)N[C@@H](CCCCN)C(=O)N[C@@H](C)C(=O)N[C@@H]([C@@H](C)CC)C(=O)NCC(=O)N[C@@H](CO)C(=O)N[C@@H]([C@@H](C)CC)C(=O)N[C@@H](Cc1ccccc1)C(=O)NCC(=O)N[C@@H](CCCCN)C(=O)N2` [compound 90] (H-[Nle]D[Nle]RCSASVECKQKCLKAIGSIFGKC[Nle]NKKCKCYPR-OH; disulfide 5-26, 11-31, 15-33): the “Selectivity ratio Kv1.6/Kv1.3” value in assay [1] is recorded as greater than 17800. Also, the “Selectivity ratio Kv1.1/Kv1.3” value in assay [2] was greater than 17800. In addition, half-maximal inhibition in assay [3] (IC50) was put at 0.55 nM. In addition, the “Selectivity ratio Kv1.2/Kv1.3” value in assay [4] is 11034.

Values taken from patent US20240182531A1, “KV1.3 Blockers” (priority 2021, published 2024).
